Source: patent US12565505B2, “mTORC modulators and uses thereof” (Aeovian Pharmaceuticals, Inc., priority 2019, dated 2026)
Read-outs that look alike come from different tables or passages of the source.

Experiments:
mTORC1 = biological target: T1, mTORC1 (Homo sapiens, UniProt P42345+P62942); assay: Inhibition assay for mTORC1: phosphorylation of pS6K at Thr389, AlphaLISA SureFire in PC3 cells; format: cell-based
T1 construct: endogenous in cells; host or cells: PC3 cells (human prostate adenocarcinoma)
Protocol: (§1) The IC50s of the inhibition of mTORC1 and mTORC2 were determined in vitro by determining the phosphorylation of pS6K at position Thr389 (mTORC1 inhibition) and pAkt at Ser473 (mTORC2 inhibition). In vitro studies were performed with AiphaLISA® technology using PC3 cells (Prostate Adenocarcinoma; Human (Homo sapiens)). The cells were seeded in 96 well plates and were treated for 24 hours with the different compounds. […] All analysis were performed using GraphPad Prism 7.0 (GraphPad Software, San Diego, USA).
Tables 5-7 include PIC50 values for mTORC1 of selected compounds; with compounds having an PIC50 for mTORC1 of >9.5 as A, 8.5 to 9.5 as B, and less than 8.5 as C.

mTORC2 = biological target: T2, mTORC2 (Homo sapiens, UniProt P42345+P62942); assay: Inhibition assay for mTORC2: phosphorylation of pAkt at Ser473, AlphaLISA SureFire in PC3 cells; format: cell-based; conditions: 24 hours treatment, analogs substituted at C40 and C16 (C16 diastereomer mixtures not isolated)
T2 construct: endogenous in cells; host or cells: PC3 cells (human prostate adenocarcinoma)
Protocol: as §1, with “USA). […]” for “USA).”

[1] = PC3 cells, 24 hours treatment, pS6K Thr389, analogs substituted at C40 and C16 (C16 diastereomer mixtures not isolated), read-out: pIC50 mTORC1 (converted)
[2] = PC3 cells, read-out: pIC50 mTORC2 (converted)

| SMILES | IC50 (mTORC1; [1]) [nM] | IC50 (mTORC2; [2]) [nM] | IC50 (mTORC1) [nM] | IC50 (mTORC2; pIC50 mTORC2, PC3 cells) [nM] |
| --- | --- | --- | --- | --- |
| CO[C@@H]1C[C@H](C[C@@H](C)[C@@H]2CC(=O)[C@H](C)/C=C(\C)[C@@H](O)[C@@H](OC)C(=O)[C@H](C)C[C@H](C)/C=C/C=C/C=C(\C)C(OCCO)C[C@@H]3CC[C@@H](C)[C@@](O)(O3)C(=O)C(=O)N3CCCCC3C(=O)O2)CC[C@H]1OCCCN1C[C@@H](C)O[C@@H](C)C1 (some centres unmarked) [Compound 18] | < 0.316 | > 10000 |  |  |
| COCCCCOC1C[C@@H]2CC[C@@H](C)[C@@](O)(O2)C(=O)C(=O)N2CCCCC2C(=O)O[C@H]([C@H](C)C[C@@H]2CC[C@@H](OCCCN3CCOCC3)[C@H](OC)C2)CC(=O)[C@H](C)/C=C(\C)[C@@H](O)[C@@H](OC)C(=O)[C@H](C)C[C@H](C)/C=C/C=C/C=C/1C (some centres unmarked) [Compound 65] | < 0.316 | 1000 to 10000 |  |  |
| CO[C@@H]1C[C@H](C[C@@H](C)[C@@H]2CC(=O)[C@H](C)/C=C(\C)[C@@H](O)[C@@H](OC)C(=O)[C@H](C)C[C@H](C)/C=C/C=C/C=C(\C)C(OC3COC3)C[C@@H]3CC[C@@H](C)[C@@](O)(O3)C(=O)C(=O)N3CCCCC3C(=O)O2)CC[C@H]1OC(=O)NCCN1CCOCC1 (some centres unmarked) [Compound 71] | 0.316 to 3.16 | > 10000 |  |  |
| CO[C@@H]1C[C@H](C[C@@H](C)[C@@H]2CC(=O)[C@H](C)/C=C(\C)[C@@H](O)[C@@H](OC)C(=O)[C@H](C)C[C@H](C)/C=C/C=C/C=C(\C)C(OCc3ccccc3)C[C@@H]3CC[C@@H](C)[C@@](O)(O3)C(=O)C(=O)N3CCCCC3C(=O)O2)CC[C@H]1OC(=O)NCCN1CCOCC1 (some centres unmarked) [Compound 115] | < 0.316 | < 1000 |  |  |
| CO[C@@H]1C[C@H](C[C@@H](C)[C@@H]2CC(=O)[C@H](C)/C=C(\C)[C@@H](O)[C@@H](OC)C(=O)[C@H](C)C[C@H](C)/C=C/C=C/C=C(\C)C(OCCc3ccccc3)C[C@@H]3CC[C@@H](C)[C@@](O)(O3)C(=O)C(=O)N3CCCCC3C(=O)O2)CC[C@H]1OC(=O)NCCO (stereo partly drawn) [Compound 111, [(1R,2R,4S)-4-[(2R)-2-[(1R,9S,12S,15R,16E,18R,19R,21R,23S,24E,26E,28E,32S,35R)-1,18-dihydroxy-19-methoxy-15,17,21,23,29,35-hexamethyl-2,3,10,14,20-pentaoxo-30-(2-phenylethoxy)-11,36-dioxa-4-azatricyclo[30.3.1.0^4,9]hexatriaconta-16,24,26,28-tetraen-12-yl]propyl]-2-methoxy-cyclohexyl] N-(2-hydroxyethyl)carbamate] | < 0.316 | < 1000 |  |  |
| CO[C@@H]1C[C@H](C[C@@H](C)[C@@H]2CC(=O)[C@H](C)/C=C(\C)[C@@H](O)[C@@H](OC)C(=O)[C@H](C)C[C@H](C)/C=C/C=C/C=C(\C)C(OCCO)C[C@@H]3CC[C@@H](C)[C@@](O)(O3)C(=O)C(=O)N3CCCCC3C(=O)O2)CC[C@H]1OC(=O)NCCN1CCN(C)CC1 (some centres unmarked) [Compound 76] | 0.316 to 3.16 | > 10000 |  |  |
| CO[C@@H]1C[C@H](C[C@@H](C)[C@@H]2CC(=O)[C@H](C)/C=C(\C)[C@@H](O)[C@@H](OC)C(=O)[C@H](C)C[C@H](C)/C=C/C=C/C=C(\C)C(OCCc3ccccc3)C[C@@H]3CC[C@@H](C)[C@@](O)(O3)C(=O)C(=O)N3CCCCC3C(=O)O2)CC[C@H]1OCCO (some centres unmarked) [Compound 99] | < 0.316 | 1000 to 10000 |  |  |
| CO[C@@H]1C[C@H](C[C@@H](C)[C@@H]2CC(=O)[C@H](C)/C=C(\C)[C@@H](O)[C@@H](OC)C(=O)[C@H](C)C[C@H](C)/C=C/C=C/C=C(\C)C(OCCO)C[C@@H]3CC[C@@H](C)[C@@](O)(O3)C(=O)C(=O)N3CCCCC3C(=O)O2)CC[C@H]1OCCN1CCOCC1 (some centres unmarked) [Compound 8] | < 0.316 | > 10000 |  |  |
| COCCOC1C[C@@H]2CC[C@@H](C)[C@@](O)(O2)C(=O)C(=O)N2CCCCC2C(=O)O[C@H]([C@H](C)C[C@@H]2CC[C@@H](OC)[C@H](OC)C2)CC(=O)[C@H](C)/C=C(\C)[C@@H](O)[C@@H](OC)C(=O)[C@H](C)C[C@H](C)/C=C/C=C/C=C/1C (some centres unmarked) [Compound 11] | < 0.316 | > 10000 |  |  |
| COCCOC1C[C@@H]2CC[C@@H](C)[C@@](O)(O2)C(=O)C(=O)N2CCCCC2C(=O)O[C@H]([C@H](C)C[C@@H]2CC[C@@H](OCCCN3CCC(O)CC3)[C@H](OC)C2)CC(=O)[C@H](C)/C=C(\C)[C@@H](O)[C@@H](OC)C(=O)[C@H](C)C[C@H](C)/C=C/C=C/C=C/1C (some centres unmarked) [Compound 85] | 0.316 to 3.16 | 1000 to 10000 |  |  |
| COCCOCCOC1C[C@@H]2CC[C@@H](C)[C@@](O)(O2)C(=O)C(=O)N2CCCCC2C(=O)O[C@H]([C@H](C)C[C@@H]2CC[C@@H](OCCO)[C@H](OC)C2)CC(=O)[C@H](C)/C=C(\C)[C@@H](O)[C@@H](OC)C(=O)[C@H](C)C[C@H](C)/C=C/C=C/C=C/1C (some centres unmarked) [Compound 20] | < 0.316 | > 10000 |  |  |
| CO[C@@H]1C[C@H](C[C@@H](C)[C@@H]2CC(=O)[C@H](C)/C=C(\C)[C@@H](O)[C@@H](OC)C(=O)[C@H](C)C[C@H](C)/C=C/C=C/C=C(\C)C(OCCO)C[C@@H]3CC[C@@H](C)[C@@](O)(O3)C(=O)C(=O)N3CCCCC3C(=O)O2)CC[C@H]1OC(=O)N(C)CCO (some centres unmarked) [Compound 83] | 0.316 to 3.16 | 1000 to 10000 |  |  |
| COCCOC1C[C@@H]2CC[C@@H](C)[C@@](O)(O2)C(=O)C(=O)N2CCCCC2C(=O)O[C@H]([C@H](C)C[C@@H]2CC[C@@H](OCCCCN3CCOCC3)[C@H](OC)C2)CC(=O)[C@H](C)/C=C(\C)[C@@H](O)[C@@H](OC)C(=O)[C@H](C)C[C@H](C)/C=C/C=C/C=C/1C (some centres unmarked) [Compound 56] | < 0.316 | 1000 to 10000 |  |  |
| CO[C@@H]1C[C@H](C[C@@H](C)[C@@H]2CC(=O)[C@H](C)/C=C(\C)[C@@H](O)[C@@H](OC)C(=O)[C@H](C)C[C@H](C)/C=C/C=C/C=C(\C)C(OCCO)C[C@@H]3CC[C@@H](C)[C@@](O)(O3)C(=O)C(=O)N3CCCCC3C(=O)O2)CC[C@H]1OC(=O)NCCN1CCCCC1 (some centres unmarked) [Compound 72] | 0.316 to 3.16 | > 10000 |  |  |
| COCCOC1C[C@@H]2CC[C@@H](C)[C@@](O)(O2)C(=O)C(=O)N2CCCCC2C(=O)O[C@H]([C@H](C)C[C@@H]2CC[C@@H](OCCN3CCCCC3)[C@H](OC)C2)CC(=O)[C@H](C)/C=C(\C)[C@@H](O)[C@@H](OC)C(=O)[C@H](C)C[C@H](C)/C=C/C=C/C=C/1C (some centres unmarked) [Compound 51] | < 0.316 | 1000 to 10000 |  |  |
| CO[C@@H]1C[C@H](C[C@@H](C)[C@@H]2CC(=O)[C@H](C)/C=C(\C)[C@@H](O)[C@@H](OC)C(=O)[C@H](C)C[C@H](C)/C=C/C=C/C=C(\C)C(OCCc3ccccc3)C[C@@H]3CC[C@@H](C)[C@@](O)(O3)C(=O)C(=O)N3CCCCC3C(=O)O2)CC[C@H]1OC(=O)NCCN1CCCCC1 (some centres unmarked) [Compound 113] | < 0.316 | < 1000 |  |  |
| COCCOCCOC1C[C@@H]2CC[C@@H](C)[C@@](O)(O2)C(=O)C(=O)N2CCCC[C@H]2C(=O)O[C@H]([C@H](C)C[C@@H]2CC[C@@H](OCCCO)[C@H](OC)C2)CC(=O)[C@H](C)/C=C(\C)[C@@H](O)[C@@H](OC)C(=O)[C@H](C)C[C@H](C)/C=C/C=C/C=C/1C (mixture of isomers) [Compound 17] |  |  | < 0.316 | > 10000 |
| CO[C@@H]1C[C@H](C[C@@H](C)[C@@H]2CC(=O)[C@H](C)/C=C(\C)[C@@H](O)[C@@H](OC)C(=O)[C@H](C)C[C@H](C)/C=C/C=C/C=C(\C)C(OCCCO)C[C@@H]3CC[C@@H](C)[C@@](O)(O3)C(=O)C(=O)N3CCCCC3C(=O)O2)CC[C@H]1OCCO (some centres unmarked) [Compound 15] | < 0.316 | > 10000 |  |  |
| CO[C@@H]1C[C@H](C[C@@H](C)[C@@H]2CC(=O)[C@H](C)/C=C(\C)[C@@H](O)[C@@H](OC)C(=O)[C@H](C)C[C@H](C)/C=C/C=C/C=C(\C)C(OCCc3ccccc3)C[C@@H]3CC[C@@H](C)[C@@](O)(O3)C(=O)C(=O)N3CCCCC3C(=O)O2)CC[C@H]1OCCCN1CCOCC1 (some centres unmarked) [Compound 108] | < 0.316 | < 1000 |  |  |
| COCCOC1C[C@@H]2CC[C@@H](C)[C@@](O)(O2)C(=O)C(=O)N2CCCCC2C(=O)O[C@H]([C@H](C)C[C@@H]2CC[C@@H](OCCCN3CCCCC3)[C@H](OC)C2)CC(=O)[C@H](C)/C=C(\C)[C@@H](O)[C@@H](OC)C(=O)[C@H](C)C[C@H](C)/C=C/C=C/C=C/1C (some centres unmarked) [Compound 35] | < 0.316 | 1000 to 10000 |  |  |
| CO[C@@H]1C[C@H](C[C@@H](C)[C@@H]2CC(=O)[C@H](C)/C=C(\C)[C@@H](O)[C@@H](OC)C(=O)[C@H](C)C[C@H](C)/C=C/C=C/C=C(\C)C(OC(C)C)C[C@@H]3CC[C@@H](C)[C@@](O)(O3)C(=O)C(=O)N3CCCCC3C(=O)O2)CC[C@H]1OCCCc1ccccc1 (some centres unmarked) [Compound 96] | > 3.16 | > 10000 |  |  |
| COCCOC1C[C@@H]2CC[C@@H](C)[C@@](O)(O2)C(=O)C(=O)N2CCCCC2C(=O)O[C@H]([C@H](C)C[C@@H]2CC[C@@H](OC(=O)NCCN3CCCCC3)[C@H](OC)C2)CC(=O)[C@H](C)/C=C(\C)[C@@H](O)[C@@H](OC)C(=O)[C@H](C)C[C@H](C)/C=C/C=C/C=C/1C (some centres unmarked) [Compound 57] | < 0.316 | 1000 to 10000 |  |  |
